Results published in ChEMBL document CHEMBL1201861, “Genomics of Drug Sensitity in Cancer screening data, Wellcome Trust Sanger Institute”.
pIC50: −log10 of the molar value.

Tests used:
Assay in all cases: cells
COLO-829 = assay type: functional, cell-based, Homo sapiens; details: Homo sapiens, COLO-829
Description: SANGER: Inhibition of human COLO-829 cell growth in a cell viability assay.

COR-L88 = assay type: functional, cell-based, Homo sapiens; details: Homo sapiens, COR-L88;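 further: growth inhibition of COR-L88 cells, read out with a cell viability assay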
Description: SANGER: Inhibition of human COR-L88 cell growth in a cell viability assay.

D-502MG = assay type: functional, cell-based, Homo sapiens; details: Homo sapiens, D-502MG
Description: SANGER: Inhibition of human D-502MG cell growth in a cell viability assay.

DB = assay type: functional, cell-based, Homo sapiens; details: Homo sapiens, DB
Description: SANGER: Inhibition of human DB cell growth in a cell viability assay.

DJM-1 = assay type: functional, cell-based, Homo sapiens; details: Homo sapiens, DJM-1;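 further: growth inhibition of human DJM-1 cells, read out by a cell viability assay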
DMS-114 = assay type: functional, cell-based, Homo sapiens; details: Homo sapiens, DMS-114
ETK-1 = assay type: functional, cell-based, Homo sapiens; details: Homo sapiens, ETK-1;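 further: growth inhibition of human ETK-1 cells, read out with a cell viability assay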
Description: SANGER: Inhibition of human ETK-1 cell growth in a cell viability assay.

EW-13 = assay type: functional, cell-based, Homo sapiens; details: Homo sapiens, EW-13;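 further: growth inhibition of EW-13 cells, read out with a cell viability assay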
Description: SANGER: Inhibition of human EW-13 cell growth in a cell viability assay.

EW-3 = assay type: functional, cell-based, Homo sapiens; details: Homo sapiens, EW-3;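 further: cell viability assay read-out, IC50 reflects inhibition of growth of the EW-3 cells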
Description: SANGER: Inhibition of human EW-3 cell growth in a cell viability assay.

GI-1 = assay type: functional, cell-based, Homo sapiens; details: Homo sapiens, GI-1;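 further: growth inhibition of human GI-1 cells, measured with a cell viability readout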
Description: SANGER: Inhibition of human GI-1 cell growth in a cell viability assay.

HAL-01 = assay type: functional, cell-based, Homo sapiens; details: Homo sapiens, HAL-01;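 further: growth inhibition of human HAL-01 cells, read out with a cell viability assay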
Description: SANGER: Inhibition of human HAL-01 cell growth in a cell viability assay.

HCC2218 = assay type: functional, cell-based, Homo sapiens; details: Homo sapiens, HCC2218;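 further: cell viability assay read-out, with IC50 given as the concentration that inhibits growth of the cell line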
Description: SANGER: Inhibition of human HCC2218 cell growth in a cell viability assay.

HT = assay type: functional, cell-based, Homo sapiens; details: Homo sapiens, HT
IST-SL1 = assay type: functional, cell-based, Homo sapiens; details: Homo sapiens, IST-SL1;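 further: growth inhibition of human IST-SL1 cells, read out with a cell viability assay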
Description: SANGER: Inhibition of human IST-SL1 cell growth in a cell viability assay.

J-RT3-T3-5 = assay type: functional, cell-based, Homo sapiens; details: Homo sapiens, J-RT3-T3-5;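 further: cell viability assay measuring growth inhibition of human J-RT3-T3-5 cells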
JAR = assay type: functional, cell-based, Homo sapiens; details: Homo sapiens, JAR;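 further: growth inhibition of human JAR cells determined with a cell viability assay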
Description: SANGER: Inhibition of human JAR cell growth in a cell viability assay.

KE-37 = assay type: functional, cell-based, Homo sapiens; details: Homo sapiens, KE-37;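 further: growth inhibition of KE-37 cells, read out with a cell viability assay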
Description: SANGER: Inhibition of human KE-37 cell growth in a cell viability assay.

KP-N-YS = assay type: functional, cell-based, Homo sapiens; details: Homo sapiens, KP-N-YS;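 further: cell viability assay measuring inhibition of cell line growth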
Description: SANGER: Inhibition of human KP-N-YS cell growth in a cell viability assay.

KU812 cell line = assay type: functional, cell-based, Homo sapiens; details: Homo sapiens, KU812;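 further: growth inhibition of KU812 cells, read out with a cell viability assay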
Description: SANGER: Inhibition of human KU812 cell growth in a cell viability assay.

L-363 = assay type: functional, cell-based, Homo sapiens; details: Homo sapiens, L-363
LAN-6 = assay type: functional, cell-based, Homo sapiens; details: Homo sapiens, LAN-6;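 further: growth inhibition of LAN-6 cells, determined with a cell viability assay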
Description: SANGER: Inhibition of human LAN-6 cell growth in a cell viability assay.

LB771-HNC = assay type: functional, cell-based; details: Homo sapiens;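 further: growth inhibition of LB771-HNC human cells, read out with a cell viability assay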
LOX IMVI = assay type: functional, cell-based, Homo sapiens; details: Homo sapiens, LOX IMVI
Description: SANGER: Inhibition of human LOXIMVI cell growth in a cell viability assay.

MEG-01 = assay type: functional, cell-based, Homo sapiens; details: Homo sapiens, MEG-01;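 further: growth inhibition of MEG-01 cells, read out by a cell viability assay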
Description: SANGER: Inhibition of human MEG-01 cell growth in a cell viability assay.

MFM-223 = assay type: functional, cell-based, Homo sapiens; details: Homo sapiens, MFM-223
Description: SANGER: Inhibition of human MFM-223 cell growth in a cell viability assay.

ML-2 = assay type: functional, cell-based, Homo sapiens; details: Homo sapiens, ML-2;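 further: growth inhibition of ML-2 cells, measured with a cell viability readout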
Description: SANGER: Inhibition of human ML-2 cell growth in a cell viability assay.

MOLT-16 = assay type: functional, cell-based, Homo sapiens; details: Homo sapiens, MOLT-16;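 further: growth inhibition of human MOLT-16 cells, read out with a cell viability assay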
Description: SANGER: Inhibition of human MOLT-16 cell growth in a cell viability assay.

MV4-11 = assay type: functional, cell-based, Homo sapiens, MV-4-11; details: Homo sapiens, MV4-11;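 further: cell viability readout measuring growth inhibition of human MV-4-11 cells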
Description: SANGER: Inhibition of human MV-4-11 cell growth in a cell viability assay.

MZ2-MEL = assay type: functional, cell-based, Homo sapiens; details: Homo sapiens, MZ2-MEL;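 further: growth inhibition of MZ2-MEL cells read out with a cell viability assay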
Description: SANGER: Inhibition of human MZ2-MEL cell growth in a cell viability assay.

NCI-H1395 = assay type: functional, cell-based, Homo sapiens; details: Homo sapiens, NCI-H1395;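 further: cell viability assay read-out quantifying reduced proliferation of human NCI-H1395 cells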
Description: SANGER: Inhibition of human NCI-H1395 cell growth in a cell viability assay.

NCI-H720 = assay type: functional, cell-based, Homo sapiens; details: Homo sapiens, NCI-H720;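 further: growth inhibition of human NCI-H720 cells determined by a cell viability assay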
Description: SANGER: Inhibition of human NCI-H720 cell growth in a cell viability assay.

SNU1 = assay type: functional, cell-based, Homo sapiens; details: Homo sapiens, SNU1;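 further: growth inhibition of human NCI-SNU-1 cells, measured with a cell viability assay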
Description: SANGER: Inhibition of human NCI-SNU-1 cell growth in a cell viability assay.

NKM-1 = assay type: functional, cell-based, Homo sapiens; details: Homo sapiens, NKM-1;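 further: growth inhibition of NKM-1 cells, read out with a cell viability assay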
Description: SANGER: Inhibition of human NKM-1 cell growth in a cell viability assay.

OCI-AML2 = assay type: functional, cell-based, Homo sapiens; details: Homo sapiens, OCI-AML2;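 further: growth inhibition of OCI-AML2 cells, read out with a cell viability assay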
OMC-1 = assay type: functional, cell-based, Homo sapiens; details: Homo sapiens, OMC-1;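 further: growth inhibition of the OMC-1 cell line, measured by a cell viability assay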
Description: SANGER: Inhibition of human OMC-1 cell growth in a cell viability assay.

RCC10RGB = assay type: functional, cell-based, Homo sapiens; details: Homo sapiens, RCC10RGB;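 further: growth inhibition of human RCC10RGB cells, read out by a cell viability assay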
Description: SANGER: Inhibition of human RCC10RGB cell growth in a cell viability assay.

SCC-15 = assay type: functional, cell-based, Homo sapiens; details: Homo sapiens, SCC-15;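 further: growth inhibition of SCC-15 cells, read out with a cell viability assay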
SK-NEP-1 = assay type: functional, cell-based, Homo sapiens; details: Homo sapiens, SK-NEP-1;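 further: growth inhibition of human SK-NEP-1 cells, read out by a cell viability assay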
Description: SANGER: Inhibition of human SK-NEP-1 cell growth in a cell viability assay.

SK-UT-1 = assay type: functional, cell-based, Homo sapiens; details: Homo sapiens, SK-UT-1;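 further: growth inhibition of SK-UT-1 cells, measured by a cell viability assay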
Description: SANGER: Inhibition of human SK-UT-1 cell growth in a cell viability assay.

SW872 = assay type: functional, cell-based, Homo sapiens; details: Homo sapiens, SW872;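 further: growth inhibition of SW872 cells, read out by a viability assay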
Description: SANGER: Inhibition of human SW872 cell growth in a cell viability assay.

TE-1 = assay type: functional, cell-based, Homo sapiens; details: Homo sapiens, TE-1;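 further: growth inhibition of the human TE-1 cell line, read out with a cell viability assay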
A704 = assay type: functional, cell-based; details: Homo sapiens;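 further: growth inhibition of human A704 cells, read out with a cell viability assay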
Description: SANGER: Inhibition of human A704 cell growth in a cell viability assay.

BB65-RCC = assay type: functional, cell-based, Homo sapiens; details: Homo sapiens, BB65-RCC;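 further: growth inhibition of the cell line, measured with a cell viability assay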
Description: SANGER: Inhibition of human BB65-RCC cell growth in a cell viability assay.

BE-13 = assay type: functional, cell-based, Homo sapiens; details: Homo sapiens, BE-13;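 further: growth inhibition of human BE-13 cells, measured with a cell viability assay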
Description: SANGER: Inhibition of human BE-13 cell growth in a cell viability assay.

BT-474 = assay type: functional, cell-based, Homo sapiens; details: Homo sapiens, BT-474
Description: SANGER: Inhibition of human BT-474 cell growth in a cell viability assay.

BV-173 = assay type: functional, cell-based, Homo sapiens; details: Homo sapiens, BV-173
Description: SANGER: Inhibition of human BV-173 cell growth in a cell viability assay.

TE-6 = assay type: functional, cell-based, Homo sapiens; details: Homo sapiens, TE-6;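 further: growth inhibition of TE-6 cells, read out with a cell viability assay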
Description: SANGER: Inhibition of human TE-6 cell growth in a cell viability assay.

U-87 MG = assay type: functional, cell-based, Homo sapiens, U-87MG ATCC; details: Homo sapiens, U-87 MG;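 further: growth inhibition of the cells measured with a viability assay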
Description: SANGER: Inhibition of human U-87-MG cell growth in a cell viability assay.

no-11 = assay type: functional, cell-based, Homo sapiens; details: Homo sapiens;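 further: growth inhibition of human NO-11 cells, read out with a cell viability assay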
Description: SANGER: Inhibition of human no-11 cell growth in a cell viability assay.

In the case of `CCCCCCCCCCCC1=C(O)C(=O)C=C(O)C1=O` [EMBELIN], the pIC50 (COLO-829) was 5.28, the pIC50 (COR-L88) was less than 4.49 and the pIC50 (D-502MG) was less than 4.49. It also gave a pIC50 (DB) of less than 4.49, a pIC50 (DJM-1) of 5.06 and a pIC50 (DMS-114) of less than 4.49. The pIC50 (ETK-1) was 5.01, the pIC50 (EW-13; read-out: IC50) was 5.01 and the pIC50 (EW-3) was less than 4.49. It also gave a pIC50 (GI-1) of 5.42, a pIC50 (HAL-01) of 4.59 and a pIC50 (HCC2218) of 4.88. For the same molecule, the pIC50 (HT) was 5.26, the pIC50 (IST-SL1) was less than 4.49 and the pIC50 (J-RT3-T3-5) was 5.22. For the same molecule, the pIC50 (JAR) was less than 4.49, the pIC50 (KE-37) was 5.46 and the pIC50 (KP-N-YS) was less than 4.49. It also gave a pIC50 (KU812 cell line) of less than 4.49, a pIC50 (L-363) of 4.62 and a pIC50 (LAN-6) of less than 4.49. It also gave a pIC50 (LB771-HNC) of less than 4.49, a pIC50 (LOX IMVI) of 4.76 and a pIC50 (MEG-01) of 4.59. It also gave a pIC50 (MFM-223) of less than 4.49, a pIC50 (ML-2) of 4.91 and a pIC50 (MOLT-16) of 4.92. It also gave a pIC50 (MV4-11) of less than 4.49, a pIC50 (MZ2-MEL) of 5.20 and a pIC50 (NCI-H1395) of less than 4.49. For the same molecule, the pIC50 (NCI-H720) was less than 4.49, the pIC50 (SNU1) was less than 4.49 and the pIC50 (NKM-1) was less than 4.49. For the same molecule, the pIC50 (OCI-AML2) was 5.03, the pIC50 (OMC-1) was 4.92 and the pIC50 (RCC10RGB) was less than 4.49. It also gave a pIC50 (SCC-15) of 5.11, a pIC50 (SK-NEP-1) of 4.82 and a pIC50 (SK-UT-1) of 5.33. The pIC50 (SW872) was 4.79, the pIC50 (TE-1) was 4.67 and the pIC50 (A704) was 4.96. It also gave a pIC50 (BB65-RCC) of 4.94, a pIC50 (BE-13) of 4.64 and a pIC50 (BT-474) of less than 4.49. For the same molecule, the pIC50 (BV-173) was less than 4.49, the pIC50 (TE-6) was 4.61 and the pIC50 (U-87 MG) was less than 4.49. The pIC50 (no-11) was 5.01.

Work on `Cc1ccc(NC(=O)c2ccc(CN3CCN(C)CC3)cc2)cc1Nc1nccc(-c2cccnc2)n1` [IMATINIB] yielded a pIC50 (COLO-829) of less than 5.70, a pIC50 (COR-L88) of less than 5.70 and a pIC50 (D-502MG) of less than 5.70. For the same molecule, the pIC50 (DB) was less than 5.70, the pIC50 (DJM-1) was less than 5.70 and the pIC50 (DMS-114) was less than 5.70. It also gave a pIC50 (ETK-1) of less than 5.70, a pIC50 (EW-13) of less than 5.70 and a pIC50 (EW-3) of less than 5.70. The pIC50 (GI-1) was less than 5.70, the pIC50 (HAL-01) was less than 5.70 and the pIC50 (HCC2218) was less than 5.70. For the same molecule, the pIC50 (HT) was less than 5.70, the pIC50 (IST-SL1) was less than 5.70 and the pIC50 (J-RT3-T3-5) was less than 5.70. For the same molecule, the pIC50 (JAR) was less than 5.70, the pIC50 (KE-37) was less than 5.70 and the pIC50 (KP-N-YS) was less than 5.70. The pIC50 (KU812 cell line) was less than 5.70, the pIC50 (L-363) was less than 5.70 and the pIC50 (LAN-6) was less than 5.70. It also gave a pIC50 (LB771-HNC) of less than 5.70, a pIC50 (LOX IMVI) of less than 5.70 and a pIC50 (MEG-01) of 7.05. The pIC50 (MFM-223) was less than 5.70, the pIC50 (ML-2) was less than 5.70 and the pIC50 (MOLT-16) was less than 5.70. It also gave a pIC50 (MV4-11) of less than 5.70, a pIC50 (MZ2-MEL) of less than 5.70 and a pIC50 (NCI-H1395) of less than 5.70. It also gave a pIC50 (NCI-H720) of less than 5.70, a pIC50 (SNU1) of less than 5.70 and a pIC50 (NKM-1) of less than 5.70. The pIC50 (OCI-AML2) was less than 5.70, the pIC50 (OMC-1) was less than 5.70 and the pIC50 (RCC10RGB) was less than 5.70. It also gave a pIC50 (SCC-15) of less than 5.70, a pIC50 (SK-NEP-1) of less than 5.70 and a pIC50 (SK-UT-1) of less than 5.70. For the same molecule, the pIC50 (SW872) was less than 5.70, the pIC50 (TE-1) was less than 5.70 and the pIC50 (A704) was less than 5.70. For the same molecule, the pIC50 (BB65-RCC) was less than 5.70, the pIC50 (BE-13) was less than 5.70 and the pIC50 (BT-474) was less than 5.70. The pIC50 (BV-173) was 6.73, the pIC50 (TE-6) was less than 5.70 and the pIC50 (U-87 MG) was less than 5.70. For the same molecule, the pIC50 (no-11) was less than 5.70.

Molecule `CC1(C)CCC(c2ccc(Cl)cc2)=C(CN2CCN(c3ccc(C(=O)NS(=O)(=O)c4ccc(N[C@H](CCN5CCOCC5)CSc5ccccc5)c(S(=O)(=O)C(F)(F)F)c4)cc3)CC2)C1` [NAVITOCLAX] has a pIC50 (COLO-829) of less than 5.70, a pIC50 (COR-L88) of 6.44 and a pIC50 (D-502MG) of less than 5.70. For the same molecule, the pIC50 (DB) was 6.24, the pIC50 (DJM-1) was less than 5.70 and the pIC50 (DMS-114) was less than 5.70. For the same molecule, the pIC50 (ETK-1) was less than 5.70, the pIC50 (EW-13; read-out: IC50) was 6.23 and the pIC50 (EW-3) was 7.09. It also gave a pIC50 (GI-1) of less than 5.70, a pIC50 (HAL-01) of 6.14 and a pIC50 (HCC2218) of less than 5.70. For the same molecule, the pIC50 (HT) was less than 5.70, the pIC50 (IST-SL1) was 6.45 and the pIC50 (J-RT3-T3-5) was 6.22. The pIC50 (JAR) was less than 5.70, the pIC50 (KE-37) was 6.94 and the pIC50 (KP-N-YS) was 5.93. For the same molecule, the pIC50 (KU812 cell line) was less than 5.70, the pIC50 (L-363) was less than 5.70 and the pIC50 (LAN-6) was less than 5.70. It also gave a pIC50 (LB771-HNC) of less than 5.70, a pIC50 (LOX IMVI) of less than 5.70 and a pIC50 (MEG-01) of 6.23. For the same molecule, the pIC50 (MFM-223) was less than 5.70, the pIC50 (ML-2) was 7.70 and the pIC50 (MOLT-16) was 6.19. The pIC50 (MV4-11) was 7.80, the pIC50 (MZ2-MEL) was less than 5.70 and the pIC50 (NCI-H1395) was less than 5.70. It also gave a pIC50 (NCI-H720) of 7.40, a pIC50 (SNU1) of 5.86 and a pIC50 (NKM-1) of 7.77. For the same molecule, the pIC50 (OCI-AML2) was less than 5.70, the pIC50 (OMC-1) was 5.73 and the pIC50 (RCC10RGB) was less than 5.70. It also gave a pIC50 (SCC-15) of less than 5.70, a pIC50 (SK-NEP-1) of 7.14 and a pIC50 (SK-UT-1) of less than 5.70. It also gave a pIC50 (SW872) of less than 5.70, a pIC50 (TE-1) of less than 5.70 and a pIC50 (A704) of 6.37. The pIC50 (BB65-RCC) was less than 5.70, the pIC50 (BE-13) was 6.44 and the pIC50 (BT-474) was less than 5.70. For the same molecule, the pIC50 (BV-173) was 7.64, the pIC50 (TE-6) was less than 5.70 and the pIC50 (U-87 MG) was less than 5.70. The pIC50 (no-11) was less than 5.70.
